In US11096986B2, “Use of a neurofilament peptide for targeting neural stem cells” (Universite D'Angers, priority 2014, dated 2021):
Ends that are not written are not given here.

Columns and labels:
[1] = system: neural stem cells of newborn rats; experiment: Uptake mechanism by FACS (4° C., ATP depletion, endocytosis inhibitors); format: cell-based, rat
Protocol: (§1) To evaluate the internalization of the FITC labelled NFL-TBS40-63 peptide by the fluorescence-activated cell sorting technique (FACS, Becton Dickinson), neurospheres were seeded in 35-mm dishes and cultured for 30 min at 37° C. in media containing FITC labelled NFL-TBS40-63 peptide at increasing concentrations. To quench the extracellular signal of the FITC labelled NFL-TBS40-63 peptide, 0.4% trypan blue (Sigma) was added before FACS analysis. To investigate the uptake mechanism, neurospheres were preincubated at 4° C. during 30 min, or with 10 mmol/L sodium azide in the presence of 6 mmol/L 2-deoxy-D-glucose to deplete cellular ATP, or with different inhibitors during 30 min at 37° C. Then 20 μmol/L FITC labelled peptide was added to the cells for 30 min at 37 C.°. Subsequently, after centrifugation (5 min at 700 rpm), cells were dissociated mechanically and washed twice with PBS, and then re-suspended in 50 μg/mL Propidium iodide (PI, Sigma). The fluorescent positive cells that incorporated the FITC labelled peptide were analyzed by flow cytometry (FACSCalibur, Becton Dickinson).

neural stem cells [2] = experiment: Neurosphere forming analysis (primary neurospheres, adherence); format: cell-based, rat
Protocol: (§2) To investigate neurosphere forming properties, 5.10^3 SVZ cells were seeded per well in a 24 wells plate in media containing 20 ng/mL EGF. Cells were incubated in the absence or presence of increasing concentrations of biotinylated peptide, or with 1 μg/mL colchicine. After 5-7 days, the total number of primary neurospheres and the percent of adherent primary neurospheres were determined in each condition by microscopy analysis, and pictures were taken with an inverted microscope and the Metamorph software. Then for self-renewal assay, primary neurospheres were collected in each condition, dissociated as single cells, and seeded in media containing 20 ng/mL EGF. After 5 days, the total number of secondary neurospheres was counted in each condition by microscopy analysis.

neural stem cells [3] = experiment: Self-renewal assay (secondary neurospheres); format: cell-based, rat; conditions: primary neurospheres cultured with peptide, dissociated, 5 days in culture medium only
Protocol: as §2

[4] = system: PSA-NCAM expression on neural stem cells; experiment: PSA-NCAM expression by flow cytometry; format: cell-based, rat; conditions: high peptide concentrations, 7 days
Protocol: To quantify the PSA-NCAM expression on neural stem cells, neurospheres were seeded in 35-mm dishes and cultured for 7 days at 37° C. in media containing biotinylated NFL-TBS.40-63 peptide at increasing concentrations, or containing 1% new-born calf serum (NBCS). After dissociation, cells were incubated with the anti-PSA-NCAM antibody conjugated to R-phycoerythrin (PE) for 10 minutes at 4° C. (Miltenyi), washed and then re-suspended in 50 μg/mL PI. The fluorescent positive cells that expressed PSA-NCAM were analyzed by flow cytometry.

neural stem cells [5] = experiment: CyQUANT cell proliferation assay; format: cell-based, rat
Protocol: To analyse the NFL-TBS.40-63 peptide effect on the NSC proliferation, primary neurospheres were dissociated and 5.10^3 cells per well were plated on BD Cell-Tak (BD Biosciences) on 96 well microplate. Cells were treated with increased concentrations of biotinylated NFL-TBS.40-63 peptide, or with 1 μmol/L colchicine during 72 h at 37° C. After washes with PBS, cells were freezed at −80° C. Finally, the DNA concentration was analyzed using the CyQUANT cell proliferation assay kit (Molecular Probes).

neural stem cells [6] = experiment: Cell cycle analysis by PI incorporation and FACS; format: cell-based, rat
Protocol: […] Neurospheres were then collected in a microcentrifuge tube. After centrifugation (5 min at 700 rpm), cells were dissociated mechanically and permeabilized with PBS-Tween 0.5% and fixed with ethanol 70% before adding 1 mg/mL RNase (Invitrogen) during 30 min at 37° C. The cell suspension was diluted in 10 μg/mL PI before DNA content analysis by flow cytometry.

neural stem cells [7] = experiment: Confocal microscopy of neurospheres (peptide uptake, α-tubulin microtubule network); format: cell-based, rat
Protocol: To visualize the NFL-TBS40-63 peptide uptake in neural stem cells, neurospheres were plated on BD Cell-Tak (BD Biosciences) coverslips or LabTek chambers. After 24 h, neurospheres were incubated with 20 μmol/L FITC labelled NFL-TBS40-63 peptide for 30 min, 6 h or 72 h. Following PBS washing, cells were fixed with 4% paraformaldehyde for 15 min and washed three times in PBS. They were then incubated in a 0.5% triton X-100 permeabilization solution for 30 min and washed three times in PBS before incubation in a blocking solution (1% bovine serum albumin in 0.1% triton X-100) for 1 h. Neurospheres were then incubated overnight at 4° C. with mouse anti-α-tubulin antibody (Sigma) 1/1000. After three washes in PBS, tubulin was localized using an Alexa 568 nm anti-mouse antibody (Life Technologies) 1/200 for 2 h. Neurospheres were washed three times with PBS before adding 3 μmol/L 4′6-diaminido-2-phenylindole (DAPI, Sigma) for 5 min. Following PBS washing, coversplips were mounted with a ProLong Gold antifade solution (Life Technologies).

neural stem cells [8] = experiment: Cell viability by Annexin V/PI staining and FACS; format: cell-based, rat
Protocol: To analyse the cell viability in the presence of the NFL-TBS40-63 peptide, neurospheres were seeded in 35-mm dishes and then treated with increased concentrations of biotinylated peptide or with 1 μmol/L colchicine during 3 or 5 days at 37° C. Neurospheres were then collected in a microcentrifuge tube. After centrifugation (5 min at 700 rpm), cells were dissociated mechanically and stained with annexin-V FITC (Annexin-V FITC Kit, Miltenyi Biotec) for 15 min at room temperature. Finally, cells were counterstained with 1 μg/mL PI solution prior to analysis by flow cytometry.

glioblastoma cells = glioblastoma cells (Bocquet et al., 2009; Bergès et al., 2012); cited from earlier work
neurones and astrocytes = neurones and astrocytes (Bocquet et al., 2009; Bergès et al., 2012); cited from earlier work
[9] = system: neural stem cells of newborn rats; experiment: FACS internalization of FITC labelled peptide in neurospheres of newborn rats; format: cell-based, rat; conditions: for percentage of newborn NSCs that internalized the peptide: 30 min, FACS
Protocol: (§3) Primary cultures of neural stem cells are derived from the sub-ventricular zone of newborn (1-5 days) or adults (<4 months) brain Wistar rats. The dissociated cells were grown in MEM alpha (PAA) supplemented with 25 mmol/L D-glucose (Sigma), 1 mmol/L Na Pyruvate, 15 mmol/L HEPES, 5% penicillin/streptomycin (PAA) and 1% B27 (Gibco), and containing 20 ng/mL EGF (Promega). After 5-7 days, stem cells formed floating neurospheres.
as §1

[10] = system: neural stem cells of adult rats; experiment: FACS internalization of FITC labelled peptide in neurospheres of adult rats; format: cell-based, rat; conditions: 40 μmol/L, 30 minutes
Protocol: as §3
as §1, with “Subsequently, after centrifugation (5 min at 700 rpm), cells were dissociated mechanically and washed twice with PBS, and then re-suspended in 50 μg/mL Propidium iodide (PI, Sigma).” left out

[11] = system: adult neural stem cells in the SVZ; experiment: Intra-ventricular injection of the peptide and immunohistochemistry of the SVZ; format: in vivo, rat
Protocol: Adult females Wistar rats were anesthetized by intraperitoneal injection of a mixture of ketamine 10% (80 mg/kg) and xylazine 2% (10 mg/kg). Animals were then placed on a stereotaxic apparatus (David Kopf instruments, Tujunga, Calif.), and a sagital incision was made through the skin to expose the cranium in which a small hole was made using a dental drill, at the appropriate coordinates (−0.8 mm anterior and 1.6 mm lateral to the bregma). A volume of […] of the FITC-peptide 1 mmol/L was injected, using a 10-μL Hamilton syringe (Hamilton glass syringe 70 RN) with a 32-G needle (Hamilton, VWR), at a depth of 4.3 mm from the outer border of the cranium into the right lateral ventricle, and connected through a cannula to a 100-μL Hamilton 22-G syringe (Hamilton glass syringe 810 RN) containing the peptide. A slow-infusion was performed by convection-enhanced delivery (CED) with an osmotic pump (Harvard Apparatus) at a flow rate of 0.5 μL/min. After injection and withdrawal of the needle (0.5 mm/min), the head skin was sutured. Animals were sacrificed 1 hour, 6 hours, or 24 hours after the injection, and brains were removed and frozen, before sectioning them using a Leica cryostat. […]

[12] = summary of proliferation and adhesion results

With “YSSYSAPVSSSLSVRRSYSSSSGS (TBS motif of the human light chain neurofilament protein, amino acids) [NFL-TBS40-63 peptide]” the “peptide uptake under ATP-depletion” value ([1]; ATP-depleted buffer 30 minutes before peptide, 20 μmol/L FITC labelled peptide) was “not affected”, the “peptide uptake at 4° C.” value ([1]; cells at 4° C. 30 minutes before peptide, 20 μmol/L FITC labelled peptide) was “not affected” and the “peptide uptake in the presence of inhibitors of endocytic and signalling pathways” value ([1]; chlorpromazine, PMA, DAM, wortmaninn, U0126, genistein, sunitinib, gefitinib pre-treatment 30 min, 20 μmol/L peptide) was “not affected”. For the same compound, the “adherence of primary neurospheres” value (neural stem cells [2]; 40 μmol/L peptide) was “most of primary neurospheres were adherent”, the “number of primary neurospheres compared to untreated control” value (neural stem cells [2]; increased peptide concentrations, 5 days, except for 100 μmol/L) was “did not change” and the “adherence of primary neurospheres” value (neural stem cells [2]; peptide concentrations higher than 40 μmol/L) was “no floating neurospheres were observed”. The “high concentrations that affect both proliferation and adhesion of neural stem cells” value (neural stem cells [2]; [12]) was at least 40 µmol/L, the “low concentrations that disrupt cell proliferation without effect on cell attachment” value (neural stem cells [2]; [12]) was “up to 20 μmol/L” and the “numbers of secondary neurospheres compared to control (self-renewal)” value (neural stem cells [3]) was “significantly lower numbers of secondary neurospheres”. For the same compound, the “PSA-NCAM expression on the neural stem cells” value [4] was “weak decrease”, the “neural stem cell proliferation (DNA concentration)” value (neural stem cells [5]; increased peptide concentrations, one week (72 h in method)) was “significant decrease” and the “cellular cycle of NSC” value (neural stem cells [6]; increased peptide concentrations, 48 h) was “remained unchanged”. The “cells in G1-phase” value (neural stem cells [6]; with or without peptide, 48 h) was 60-65%, the “cells in G2/M-phases” value (neural stem cells [6]; with or without peptide, 48 h) was about 7% and the “cells in S-phase” value (neural stem cells [6]; with or without peptide, 48 h) was about 10%. For the same compound, the “microtubule network of NSC” value (neural stem cells [7]; 6 hours of incubation with the peptide (20 μmol/L FITC labelled)) was “not affected”, the NSC cell viability (neural stem cells [8]) was “not modified” and the “concentration at which the peptide disrupts microtubule formation and the cellular cycle” value (glioblastoma cells) was “higher than 10 μm”. For the same compound, the “microtubule and cellular cycle disruption in normal cells” value (neurones and astrocytes) was “not observed”.

In the case of “FITC-peptide: NFL-TBS40-63 peptide coupled to carboxy-fluorescein isothiocyanate (FITC) (YSSYSAPVSSSLSVRRSYSSSSGS; also: coupled to FITC, site not given here; UniProt P07196 40-63, looked up, fragment)”, the “percentage of newborn NSCs that internalized the peptide” value ([9]; 5 μmol/L FITC-peptide) is reported as 38.72±9.08%, the “percentage of newborn NSCs that internalized the peptide” value ([9]; 40 μmol/L FITC-peptide) is reported as 91.07±5.13% and the “peptide uptake after quenching of surface-bound fluorescence” value ([9]; 0.4% trypan blue added before FACS reading) is reported as “dose-dependent uptake of the peptide similar to that without quenching”. For the same compound, the “maximum threshold of peptide uptake in adult NSC (percentage of fluorescent cells)” value [10] was 92.74±2.51%, the “localisation of the peptide in brain sections” value ([11]; 1 mmol/L FITC peptide in right lateral ventricle of adult rats, 1 hour after injection) was “localised in the right lateral ventricle, in the ependymal cells and a part was observed in the SVZ” and the cytotoxicity in vivo ([11]; after injection in right lateral ventricle, confocal analyses) was “without causing detectable cytotoxicity”. For the same compound, the “internalization of the peptide by confocal microscopy” value (neural stem cells [7]; NSCs in the neurospheres and progenitor cells in the periphery, 20 μmol/L FITC labelled peptide) was “confirmed the internalization”.

For COc1cc2c(c(OC)c1OC)-c1ccc(OC)c(=O)cc1[C@@H](NC(C)=O)CC2 [colchicine, reference compound], the “neural stem cell proliferation (DNA concentration)” value (neural stem cells [5]; colchicine, anti-proliferative agent control) was “significant decrease”, the “cellular cycle of NSC” value (neural stem cells [6]; 1 μg/mL colchicine, positive control) was “affected” and the “microtubule network of NSC” value (neural stem cells [7]; colchicine) was “profoundly affected”. The “number of viable NSC” value (neural stem cells [8]; colchicine, three days, Annexin V-FITC and PI) was “strongly reduced”.
